Values of other authors as cited in patent US10912741B2, “Prevention of liver cancer with safranal-based formulations” (United Arab Emirates University, priority 2019, dated 2021).

Test system: HeLa cells
Conditions: reported in the background; cited from earlier work

| Compound | growth of HeLa cells |
| --- | --- |
| CC(/C=C/C=C(\C)C(=O)O[C@@H]1O[C@H](CO[C@@H]2O[C@H](CO)[C@@H](O)[C@H](O)[C@H]2O)[C@@H](O)[C@H](O)[C@H]1O)=C\C=C\C=C(C)\C=C\C=C(/C)C(=O)O[C@@H]1O[C@H](CO[C@@H]2O[C@H](CO)[C@@H](O)[C@H](O)[C@H]2O)[C@@H](O)[C@H](O)[C@H]1O [crocin] | inhibit the growth of HeLa cells |
| CC1=C(C=O)C(C)(C)C[C@H](O[C@@H]2O[C@H](CO)[C@@H](O)[C@H](O)[C@H]2O)C1 [picrocrocin] | inhibit the growth of HeLa cells |
